Like-named read-outs stand apart in the source and are kept apart here.
How the values were obtained:
Format in all cases: binding
RrgA SPEC6B = RrgA SPEC6B (Streptococcus pneumoniae, UniProt A7KT31); assay: SPR (Biacore T100); details: read-out: RrgA SPEC6B; free oligosaccharide; protein immobilised on CM5 chip; glycans 160 nM to 100 µM
Source text: SPR (Biacore T100) on RrgA SPEC6B

RrgA TIGR4 (RrgA T4) = target: T1, RrgA TIGR4 (RrgA T4) (Streptococcus pneumoniae, UniProt A0A0H2UNT6); assay: SPR (Biacore T100)
T1 construct: gene SP_0462
Source text: SPR (Biacore T100) on RrgA TIGR4 (RrgA T4)

RrgC T4 = target: T2, RrgC T4 (Streptococcus pneumoniae, UniProt A0A0H2UNM0); assay: glycan array, fluorescence; details: glycan printed on slide via spacer; PBS, 1 mM MgCl2, 1 mM CaCl2; protein pre-complexed with anti-His and labelled secondary antibodies
T2 construct: gene SP_0464
Source text: glycan array, fluorescence on RrgC T4

RrgB T4 = target: T3, RrgB T4 (Streptococcus pneumoniae, UniProt A0A0H2UNM7); assay: glycan array, fluorescence; details: glycan printed on slide via spacer; PBS, 1 mM MgCl2, 1 mM CaCl2; protein pre-complexed with anti-His and labelled secondary antibodies
T3 construct: gene SP_0463
Source text: glycan array, fluorescence on RrgB T4

[1] = read-out: RrgA TIGR4, free oligosaccharide, protein immobilised on CM5 chip, glycans 160 nM to 100 µM

Sequence of RrgA SPEC6B (A7KT31 entry or part of it): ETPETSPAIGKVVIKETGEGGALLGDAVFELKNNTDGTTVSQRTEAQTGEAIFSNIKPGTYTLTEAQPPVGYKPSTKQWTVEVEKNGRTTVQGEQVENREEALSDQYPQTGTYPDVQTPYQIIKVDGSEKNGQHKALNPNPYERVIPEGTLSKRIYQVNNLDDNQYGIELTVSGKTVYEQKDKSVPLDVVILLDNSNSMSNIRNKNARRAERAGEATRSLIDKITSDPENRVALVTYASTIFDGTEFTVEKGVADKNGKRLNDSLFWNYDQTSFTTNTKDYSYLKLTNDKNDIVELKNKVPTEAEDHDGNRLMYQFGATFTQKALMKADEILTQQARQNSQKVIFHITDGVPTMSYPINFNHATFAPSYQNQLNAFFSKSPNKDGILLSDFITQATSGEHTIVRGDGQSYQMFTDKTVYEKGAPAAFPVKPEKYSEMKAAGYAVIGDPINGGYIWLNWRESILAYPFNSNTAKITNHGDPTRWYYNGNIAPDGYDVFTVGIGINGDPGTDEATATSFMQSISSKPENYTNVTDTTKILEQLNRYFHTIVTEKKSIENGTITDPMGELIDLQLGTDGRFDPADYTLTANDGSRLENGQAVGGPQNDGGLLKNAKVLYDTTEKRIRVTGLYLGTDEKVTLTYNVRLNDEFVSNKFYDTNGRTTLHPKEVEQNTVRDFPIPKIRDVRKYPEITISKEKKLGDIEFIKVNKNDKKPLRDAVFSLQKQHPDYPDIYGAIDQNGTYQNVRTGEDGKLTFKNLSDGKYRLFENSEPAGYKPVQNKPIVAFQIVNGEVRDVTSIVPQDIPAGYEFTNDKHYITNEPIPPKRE
T1 sequence (A0A0H2UNT6 entry or part of it): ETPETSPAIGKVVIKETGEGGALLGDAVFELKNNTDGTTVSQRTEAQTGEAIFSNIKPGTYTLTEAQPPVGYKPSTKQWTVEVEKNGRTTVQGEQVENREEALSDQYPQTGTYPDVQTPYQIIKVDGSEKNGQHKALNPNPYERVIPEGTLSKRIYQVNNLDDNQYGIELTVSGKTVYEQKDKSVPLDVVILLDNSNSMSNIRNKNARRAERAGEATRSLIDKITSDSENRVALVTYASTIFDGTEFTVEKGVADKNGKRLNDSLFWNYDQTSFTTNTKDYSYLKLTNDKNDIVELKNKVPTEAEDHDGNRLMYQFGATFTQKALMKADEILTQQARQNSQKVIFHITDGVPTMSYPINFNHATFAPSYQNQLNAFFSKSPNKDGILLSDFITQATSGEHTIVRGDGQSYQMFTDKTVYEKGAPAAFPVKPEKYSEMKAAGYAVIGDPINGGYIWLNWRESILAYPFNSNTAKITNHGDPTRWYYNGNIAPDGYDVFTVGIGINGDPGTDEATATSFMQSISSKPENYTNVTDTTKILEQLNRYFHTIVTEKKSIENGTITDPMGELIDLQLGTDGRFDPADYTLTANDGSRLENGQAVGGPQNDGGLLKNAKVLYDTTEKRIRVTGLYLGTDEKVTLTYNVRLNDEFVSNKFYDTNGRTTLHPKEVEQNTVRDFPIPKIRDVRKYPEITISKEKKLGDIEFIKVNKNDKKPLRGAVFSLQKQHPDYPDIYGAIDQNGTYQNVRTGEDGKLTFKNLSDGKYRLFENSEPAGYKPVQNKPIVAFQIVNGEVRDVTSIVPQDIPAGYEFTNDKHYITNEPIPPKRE
T2 sequence (A0A0H2UNM0 entry or part of it): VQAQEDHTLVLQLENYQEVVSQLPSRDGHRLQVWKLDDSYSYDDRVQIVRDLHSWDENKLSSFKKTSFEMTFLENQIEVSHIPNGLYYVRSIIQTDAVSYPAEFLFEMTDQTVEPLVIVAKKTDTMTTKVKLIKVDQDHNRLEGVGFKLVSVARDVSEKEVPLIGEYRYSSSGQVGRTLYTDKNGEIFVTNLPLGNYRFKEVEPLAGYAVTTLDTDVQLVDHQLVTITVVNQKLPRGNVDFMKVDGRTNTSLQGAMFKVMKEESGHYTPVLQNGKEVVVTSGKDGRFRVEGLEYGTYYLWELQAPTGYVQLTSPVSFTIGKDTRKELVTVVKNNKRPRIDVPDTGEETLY
T3 sequence (A0A0H2UNM7 entry or part of it): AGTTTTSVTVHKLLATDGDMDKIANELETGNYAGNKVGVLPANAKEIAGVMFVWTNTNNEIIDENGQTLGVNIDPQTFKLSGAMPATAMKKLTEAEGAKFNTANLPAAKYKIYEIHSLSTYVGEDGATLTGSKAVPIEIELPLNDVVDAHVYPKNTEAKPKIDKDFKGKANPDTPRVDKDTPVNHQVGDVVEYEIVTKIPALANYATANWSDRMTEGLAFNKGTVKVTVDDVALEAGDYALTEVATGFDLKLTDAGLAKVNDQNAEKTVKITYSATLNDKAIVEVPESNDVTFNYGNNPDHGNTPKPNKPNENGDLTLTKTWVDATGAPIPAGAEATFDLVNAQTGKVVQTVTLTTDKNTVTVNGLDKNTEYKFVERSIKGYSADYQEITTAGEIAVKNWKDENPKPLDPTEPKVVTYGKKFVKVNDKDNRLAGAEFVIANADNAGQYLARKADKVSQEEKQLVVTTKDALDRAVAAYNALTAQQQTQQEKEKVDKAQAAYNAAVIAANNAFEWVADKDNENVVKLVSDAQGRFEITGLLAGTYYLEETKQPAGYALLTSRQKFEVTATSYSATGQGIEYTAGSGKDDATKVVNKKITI

Compound | Kd (RrgA SPEC6B) | Kd (RrgA TIGR4 (RrgA T4); [1]) | also measured
CC(=O)N[C@H]1[C@H](O[C@H]2[C@@H](O)[C@@H](CO)O[C@@H](O[C@H]3[C@H](O)[C@@H](O)C(O)O[C@@H]3CO)[C@@H]2O)O[C@H](CO)[C@@H](O)[C@@H]1O[C@@H]1O[C@H](CO)[C@H](O)[C@H](O)[C@H]1O (stereo partly shown) [1G, Lacto-N-tetraose] | 869 ± 454 nM | 1030 ± 50 nM | 
CC(=O)N[C@H]1[C@@H](O[C@H]2[C@@H](O)[C@@H](CO)OC(O)[C@@H]2O[C@@H]2O[C@@H](C)[C@@H](O)[C@@H](O)[C@@H]2O)O[C@H](CO)[C@H](O)[C@@H]1O (stereo partly shown) [7K, Blood group A tri] | 1400 ± 290 nM | 916 ± 66.4 nM | 
CC(=O)N[C@H]1[C@@H](O[C@H]2[C@@H](O)[C@@H](CO)O[C@@H](O[C@H]3[C@@H](O)[C@@H](CO)OC(O)[C@@H]3NC(C)=O)[C@@H]2O[C@@H]2O[C@@H](C)[C@@H](O)[C@@H](O)[C@@H]2O)O[C@H](CO)[C@H](O)[C@@H]1O (stereo partly shown) [Blood group A type3/4] | 644 ± 157 nM | 871 ± 286 nM | 
CC(=O)N[C@H]1C(O)O[C@H](CO)[C@H](O)[C@@H]1O[C@@H]1O[C@H](CO)[C@H](O)[C@H](O)[C@H]1O[C@@H]1O[C@@H](C)[C@@H](O)[C@@H](O)[C@@H]1O (stereo partly shown) [Blood group H type 3/4] | 358 ± 51 nM |  | Kd (RrgA TIGR4 (RrgA T4); read-out: RrgA TIGR4, free oligosaccharide, protein immobilised on CM5 chip, glycans 160 nM to 100 µM (value below tested range)): 89.4 ± 16 nM
CC(=O)N[C@H]1C(O)O[C@H](CO)[C@@H](O[C@@H]2O[C@H](CO)[C@H](O)[C@H](O)[C@H]2O)[C@@H]1O[C@@H]1O[C@@H](C)[C@@H](O)[C@@H](O)[C@@H]1O (stereo partly shown) [Lewis X] | 363 ± 107 nM |  | Kd (RrgA TIGR4 (RrgA T4)): 434 ± 118 nM
OC[C@H]1O[C@@H](O[C@H]2[C@H](O)[C@@H](O)C(O)O[C@@H]2CO)[C@H](O)[C@@H](O)[C@@H]1O (stereo partly shown) [cellobiose] | 583 ± 155 nM |  | 
CC(=O)N[C@H]1[C@H](O[C@H]2[C@H](O)[C@@H](NC(C)=O)C(O)O[C@@H]2CO)O[C@H](CO)[C@@H](O)[C@@H]1O (stereo partly shown) [chitobiose] | 426 ± 144 nM | 409 ± 160 nM | 
OC[C@H]1O[C@H](O[C@H]2[C@H](O)[C@@H](O)C(O)O[C@@H]2CO)[C@H](O)[C@@H](O)[C@@H]1O (stereo partly shown) [maltobiose] | 964 ± 226 nM | 1160 ± 90 nM | 
Fucα1-2Galβ1-3(Fucα1-4)GlcNAcβ1-3Galβ1-4Glcβ-sp4 [compound 496] |  |  | RrgC T4 (RrgC T4): 1192 ± 322
Galα1-3Galβ1-4GlcNAcβ-sp3 [compound 222] |  |  | RrgC T4 (RrgC T4): 3108 ± 641
Galβ1-6Galβ-sp4 [compound 100] |  |  | RrgC T4 (RrgC T4): 3443.5 ± 523
Manα1-3Manβ-sp4 [compound 120] |  |  | RrgB T4 (RrgB T4): 1332 ± 275
